# Measured values taken from US20210000953A1, “USE OF IMMUNE CHECKPOINT INHIBITORS IN CENTRAL NERVOUS SYSTEMS NEOPLASMS” (Bristol-Myers Squibb Company, priority 2014, published 2021).
# “Also recorded” adds a separate entry of the source.
# Experiments:
# TILs and PBMCs = assay: Anti-tumor-associated antigen (TAA) activity, dual-color IFNγ/granzyme B FluoroSpot assay; format: cell-based, human; settings: cells isolated from patients treated with nivolumab monotherapy (FIG. 17)
# Method: (§1) Analyses were performed on peripheral blood drawn from patients at predetermined time points (FIG. 13) and tumor tissue samples were obtained if resection was performed at the time of progression or suspected progression. Baseline and on-treatment samples were obtained from patients (n=20) randomized 1:1 to receive either nivolumab 3 mg/kg every 2 weeks (Q2W) or nivolumab 1 mg/kg+ipilimumab 3 mg/kg every 3 weeks followed by nivolumab 3 mg/kg Q2W (FIG. 13). Phenotypic, maturation, and proliferation analyses were performed using flow cytometry with population-specific antibody panels (Table 11). Cytokine release analyses were carried out on supernatants from sorted Tregs (CD4+CD25+CD127−)±stimulation (PMA+ionomycin). The anti-tumor-associated antigen (TAA) activity of peripheral blood mononuclear cells (PBMCs) and tumor-infiltrating lymphocytes (TILs) was evaluated. Cells were stimulated with interleukin (IL)-2, IL-15, and TAA peptides; after 9 days of culture with IL-2 and IL-15, cells were restimulated with IL-2, IL-15, and TAA peptides. Production of interferon (IFN)γ/granzyme B was assayed using a dual-color FluoroSpot assay.
# Tregs = assay: Cytokine release from sorted Tregs (CD4+CD25+CD127−) ± stimulation; format: cell-based, human; settings: GBM patients on nivolumab treatment
# Method: as §1
# [1] = in vivo; cited from earlier work
# recurrent GBM = assay: Study CA209143 safety lead-in cohorts (Cohort 1, 1b): investigator-assessed tumor response per RANO (brain MRI) and overall survival; format: in vivo, human
# Method: A randomized, open-label, multicenter, phase 3 study of nivolumab monotherapy versus bevacizumab and a safety study of nivolumab and nivolumab in combination with ipilimumab is conducted in adult (>18 years) subjects with a first recurrence of GBM after treatment with radiotherapy and temozolomide. Since the use of nivolumab and ipilimumab has not previously been studied in subjects with GBM, a safety lead-in (Cohort 1) consisting of approximately 10 subjects in each of two treatment arms are enrolled and randomized to treatment with either Arm N (nivolumab monotherapy) or Arm N+I (nivolumab combined with ipilimumab). Tolerability and safety of a treatment arm is determined after all subjects in the arm completed four doses or discontinued dosing prior to completing four doses. A safety evaluation of Cohort 1 is conducted for each arm based on criteria described herein.
# In order to better characterize preliminary safety and tolerability for the combination therapy, an additional, non-randomized safety cohort (Cohort 1b) to evaluate an alternate dosing regimen is initiated for the combination therapy (nivolumab 3 mg/kg+ipilimumab 1 mg/kg every 3 weeks for 4 cycles followed by nivolumab 3 mg/kg thereafter). Evaluation of the efficacy of nivolumab+ipilimumab combination therapy will be evaluated separately. Information from subjects treated with combination therapy in Cohort 1 and Cohort 1b will provide a basis for dose selection for future studies in subjects with GBM.
# All subjects received efficacy assessments with brain MRI with contrast on Day 1 Week 7, Day 1 Week 13, and then one time every 8 weeks (±1 week). MRIs occurred at ±7 days per scheduled visits. Investigators will obtain more frequent follow-up MRI scans as medically indicated.
# The primary efficacy measure of the study is overall survival (OS). OS is defined as the time between the date of randomization and the date of death due to any cause. OS is followed continuously while subjects are on study drug and every 3 months via in-person or phone contact during the survival follow-up phase of the study.
# Investigator-assessed tumor response is based upon published RANO criteria. Tumor assessments are performed as shown above in the imaging assessment for the study. Radiologic response was assessed by comparing the pretreatment baseline and on-treatment MRI scans. Radiologic progression was determined by using the smallest tumor measurement at either the pretreatment baseline or after initiation of study medication.
# A complete response required: complete disappearance of all enhancing measurable and nonmeasurable disease sustained for at least 4 weeks; no new lesions; stable or improved nonenhancing (T2/FLAIR) lesions; patients must be off corticosteroids (or on physiologic replacement doses only); and stable or improved clinically. Patients with nonmeasurable disease only cannot have a complete response; the best response possible is stable disease. […]
# [2] = exploratory analysis, Cohort 1, recurrent GBM, N = 10 per arm, same regimens
# [3] = investigator-assessed per RANO, Cohort 1, recurrent GBM, N = 10 per arm, nivolumab 3 mg/kg Q2W or nivolumab 1 mg/kg + ipilimumab 3 mg/kg Q3W x4 then nivolumab 3 mg/kg Q2W
substance,measurement,setting,value
nivolumab,Anti-TAA activity of TILs and PBMCs upon restimulation,TILs and PBMCs,increased anti-TAA activity; also recorded: functional responses to TAAs in both TILs and PBMCs
same,Production of IFNγ by Tregs,Tregs,increase production of IFNγ
same,Terminal half life,[1],up to 25 days
same,Patients who experienced stable disease or better,"recurrent GBM; Cohort 1 nivolumab monotherapy 3 mg/kg, RANO",6/10
same,Time on treatment of the one patient still receiving nivolumab at cutoff,"recurrent GBM; Cohort 1 nivolumab monotherapy arm, cutoff Sep. 9, 2015",17.5 months
same,Brain MRI following three treatments,"recurrent GBM; case: Cohort 1 Arm N, nivolumab 3 mg/kg monotherapy",disease progression as per RANO
same,Response according to RANO criteria,"recurrent GBM; case: MGMT methylated, EGFRvIII positive GBM, nivolumab 3 mg/kg",partial response
same,Brain MRI four weeks after resection,recurrent GBM; case: nivolumab 3 mg/kg,did not show tumor growth
same,"Brain MRI on Aug. 28, 2014","recurrent GBM; case: nivolumab 3 mg/kg delayed, dexamethasone 4 mg BID",improvement with resolution of rim enhancement
same,"Death, time after randomization","recurrent GBM; case: nivolumab 3 mg/kg, treated 227 days",397 days
same,Karnofsky performance status at all subsequent visits,"recurrent GBM; case: nivolumab 3 mg/kg, 90 at baseline",90
same,Time to distant disease progression after resuming nivolumab following surgery,"recurrent GBM; case: nivolumab 3 mg/kg, hippocampus and right hypothalamus, proven on autopsy",4 months
same,"Overall survival: Median, months (95% CI)","recurrent GBM; exploratory analysis, Cohort 1, recurrent GBM, N = 10 per arm, nivolumab 3 mg/kg Q2W or nivolumab 1 mg/kg + ipilimumab 3 mg/kg Q3W x4 then nivolumab 3 mg/kg Q2W, NE: not estimated",10.5 (4.1-NE)^ months
same,Overall survival: 6-month rate (95% CI),recurrent GBM; [2],70.0% (32.9-89.2)
same,Overall survival: 9-month rate (95% CI),recurrent GBM; [2],60.0% (25.3-82.7)
same,Overall survival: 12-month rate (95% CI),recurrent GBM; [2],40.0% (12.3-67.0)
same,"Overall survival: Range, months",recurrent GBM; [2],4.1-17.6 months
same,Best overall response: Complete Response,recurrent GBM; [3],0 n (%)
same,Best overall response: Partial Response,recurrent GBM; [3],1 (10) n (%)
same,Best overall response: Progressive Disease,recurrent GBM; [3],3 (30) n (%)
same,Best overall response: Stable Disease,recurrent GBM; [3],5 (50) n (%)
same,Best overall response: Unable to Determine,recurrent GBM; [3],1 (10) n (%)
